Laboratory results reported in ChEMBL document CHEMBL5724914, “Linking interpersonal differences in gut microbiota composition and drug biotransformation activity” (2024).

Assays:
[1] = human gut metagenome, 24 h, 2 µM
[2] = human gut metagenome, 24 h, 2 µM; remark: listed apart in the source
[3] = human gut metagenome, 24 h, 2 µM; remark: listed apart in the source
[4] = (§1) The drug is tested on WLS-039 corresponding to human gut metagenome with ENA study accession number: PRJEB37062 and ENA sample accession number: ERS12561746 for biotransformation under anaerobic condition. The drug concentrations were measured over 9 timepoints collected between 0 and 24 hours of incubation by liquid-chromatography-coupled mass spectrometry (LC–MS); conditions: 2 µM
[5] = as §1, with “Z-005” for “WLS-039”, “to” for “to human gut”, “ERS12561805” for “ERS12561746”; conditions: 2 µM
[6] = human gut metagenome, 24 h, 2 µM; remark: listed apart in the source
[7] = as §1, with “WLS-027” for “WLS-039”, “ERS12561744” for “ERS12561746”; conditions: 2 µM
[8] = as §1, with “Z-006” for “WLS-039”, “mouse” for “human”, “ERS12561806” for “ERS12561746”; conditions: 2 µM
[9] = as §1, with “WLS-370” for “WLS-039”, “ERS12561793” for “ERS12561746”; conditions: 2 µM
[10] = as §1, with “WLS-090” for “WLS-039”, “ERS12561753” for “ERS12561746”; conditions: 2 µM
[11] = as §1, with “Z-009” for “WLS-039”, “pig” for “human”, “ERS12561809” for “ERS12561746”; conditions: 2 µM
[12] = as §1, with “Z-008” for “WLS-039”, “to” for “to human gut”, “ERS12561808” for “ERS12561746”; conditions: 2 µM
[13] = human gut metagenome, 24 h, 2 µM; remark: listed apart in the source
[14] = as §1, with “WLS-007” for “WLS-039”, “ERS12561742” for “ERS12561746”; conditions: 2 µM
[15] = human gut metagenome, 24 h, 2 µM; remark: listed apart in the source
[16] = as §1, with “WLS-052” for “WLS-039”, “ERS12561747” for “ERS12561746”; conditions: 2 µM
[17] = as §1, with “Z-002” for “WLS-039”, “rabbit” for “human”, “ERS12561802” for “ERS12561746”; conditions: 2 µM
[18] = human gut metagenome, 24 h, 2 µM; remark: listed apart in the source
[19] = as §1, with “WLS-073” for “WLS-039”, “ERS12561749” for “ERS12561746”; conditions: 2 µM
[20] = human gut metagenome, 24 h, 2 µM; remark: listed apart in the source
Further: call rule not given here.

| Bacterial Biotransformation [1] | Bacterial Biotransformation [2] | Bacterial Biotransformation [3] | Bacterial Biotransformation [4] | Bacterial Biotransformation [5] | Bacterial Biotransformation [6] | Bacterial Biotransformation [7] | Bacterial Biotransformation [8] | Bacterial Biotransformation [9] | Bacterial Biotransformation [10] | Bacterial Biotransformation [11] | Bacterial Biotransformation [12] | Bacterial Biotransformation [13] | Bacterial Biotransformation [15] | Bacterial Biotransformation [16] | Bacterial Biotransformation [17] | Bacterial Biotransformation [18] | Bacterial Biotransformation [19] | Bacterial Biotransformation [20] | SMILES | Bacterial Biotransformation [14] |
| --- | --- | --- | --- | --- | --- | --- | --- | --- | --- | --- | --- | --- | --- | --- | --- | --- | --- | --- | --- | --- |
| Compound metabolized | Compound metabolized | Compound NOT metabolized | Compound metabolized | Compound NOT metabolized | Compound NOT metabolized | Compound NOT metabolized | Compound NOT metabolized | Compound NOT metabolized | Compound metabolized | Compound NOT metabolized | Compound NOT metabolized | Compound metabolized | Compound NOT metabolized | Compound NOT metabolized | Compound NOT metabolized | Compound metabolized | Compound NOT metabolized | Compound metabolized | COc1cc(NC(C)CCCN)c2ncccc2c1.O=P(O)(O)O.O=P(O)(O)O (centres undefined) [PRIMAQUINE PHOSPHATE] | – |
| Compound NOT metabolized | – | Compound NOT metabolized | Compound metabolized | Compound NOT metabolized | Compound NOT metabolized | Compound NOT metabolized | Compound NOT metabolized | Compound NOT metabolized | Compound metabolized | Compound metabolized | Compound NOT metabolized | Compound NOT metabolized | Compound metabolized | Compound metabolized | Compound NOT metabolized | – | Compound metabolized | Compound NOT metabolized | CCCCCNC(=N)N/N=C/c1c[nH]c2ccc(OC)cc12.O=C(O)/C=C\C(=O)O [TEGASEROD MALEATE] | Compound NOT metabolized |
| Compound NOT metabolized | Compound NOT metabolized | Compound NOT metabolized | Compound NOT metabolized | Compound NOT metabolized | Compound NOT metabolized | Compound NOT metabolized | Compound NOT metabolized | Compound NOT metabolized | Compound NOT metabolized | Compound metabolized | Compound NOT metabolized | – | Compound NOT metabolized | Compound NOT metabolized | Compound NOT metabolized | Compound NOT metabolized | Compound NOT metabolized | Compound NOT metabolized | COc1cc(C(=O)NCc2ccc(OCCN(C)C)cc2)cc(OC)c1OC [TRIMETHOBENZAMIDE] | Compound NOT metabolized |

The next lines start with the compound.

| SMILES | Bacterial Biotransformation [1] | Bacterial Biotransformation [2] | Bacterial Biotransformation [3] | Bacterial Biotransformation [4] | Bacterial Biotransformation [5] | Bacterial Biotransformation [6] | Bacterial Biotransformation [7] | Bacterial Biotransformation [8] | Bacterial Biotransformation [9] | Bacterial Biotransformation [10] | Bacterial Biotransformation [11] | Bacterial Biotransformation [12] | Bacterial Biotransformation [13] | Bacterial Biotransformation [15] | Bacterial Biotransformation [16] | Bacterial Biotransformation [17] | Bacterial Biotransformation [18] | Bacterial Biotransformation [19] | Bacterial Biotransformation [20] | Bacterial Biotransformation [14] |
| --- | --- | --- | --- | --- | --- | --- | --- | --- | --- | --- | --- | --- | --- | --- | --- | --- | --- | --- | --- | --- |
| CCN(CC)C(=O)C1(c2ccccc2)CC1CN (centres undefined) | Compound NOT metabolized | Compound NOT metabolized | Compound NOT metabolized | Compound NOT metabolized | Compound NOT metabolized | Compound NOT metabolized | Compound NOT metabolized | Compound NOT metabolized | Compound NOT metabolized | Compound NOT metabolized | Compound NOT metabolized | Compound NOT metabolized | Compound NOT metabolized | Compound NOT metabolized | Compound NOT metabolized | Compound NOT metabolized | Compound NOT metabolized | Compound NOT metabolized | Compound NOT metabolized | Compound NOT metabolized |
| COc1ccc(/C=C/C(=O)Nc2ccccc2C(=O)O)cc1OC | Compound metabolized | Compound NOT metabolized | Compound NOT metabolized | Compound metabolized | Compound metabolized | Compound NOT metabolized | Compound metabolized | Compound NOT metabolized | Compound NOT metabolized | Compound NOT metabolized | Compound metabolized | Compound NOT metabolized | Compound metabolized | Compound NOT metabolized | Compound metabolized | Compound metabolized | Compound NOT metabolized | Compound metabolized | Compound NOT metabolized | – |
| CC(C)C[C@H]1C(=O)N2CCC[C@H]2[C@]2(O)O[C@](NC(=O)[C@@H]3C=C4c5cccc6[nH]c(Br)c(c56)C[C@H]4N(C)C3)(C(C)C)C(=O)N12.CS(=O)(=O)O [BROMOCRIPTINE MESYLATE] | Compound NOT metabolized | – | – | Compound metabolized | Compound metabolized | Compound NOT metabolized | Compound metabolized | Compound metabolized | Compound metabolized | Compound metabolized | Compound metabolized | Compound metabolized | – | Compound metabolized | Compound metabolized | Compound metabolized | Compound metabolized | Compound metabolized | Compound NOT metabolized | Compound metabolized |
| C#C[C@]1(OC(C)=O)CC[C@H]2[C@@H]3CCC4=CC(=O)CC[C@@H]4[C@H]3CC[C@@]21C [NORETHINDRONE ACETATE] | Compound metabolized | Compound NOT metabolized | Compound NOT metabolized | Compound metabolized | Compound metabolized | – | Compound metabolized | Compound metabolized | Compound metabolized | – | Compound metabolized | Compound metabolized | – | – | Compound metabolized | Compound metabolized | – | Compound metabolized | Compound metabolized | – |
| CC(=O)O[C@H]1C(=O)[C@@]2(C)[C@H]([C@H](OC(=O)c3ccccc3)[C@]3(O)C[C@H](OC(=O)[C@H](O)[C@@H](NC(=O)c4ccccc4)c4ccccc4)C(C)=C1C3(C)C)[C@]1(OC(C)=O)CO[C@@H]1C[C@@H]2O [PACLITAXEL] | Compound metabolized | Compound NOT metabolized | Compound NOT metabolized | Compound metabolized | Compound metabolized | Compound NOT metabolized | Compound metabolized | Compound NOT metabolized | Compound NOT metabolized | Compound NOT metabolized | Compound metabolized | Compound NOT metabolized | Compound NOT metabolized | – | Compound metabolized | Compound metabolized | Compound NOT metabolized | Compound metabolized | Compound NOT metabolized | – |
